Experimental data reported in patent publication US5639782A, “Neolignan derivatives as platelet activating factor receptor antagonists and 5-lipoxygenase inhibitors” (Center for Innovative Technology, priority 1994, dated 1997).
“Also recorded” adds a separate entry of the source. Like-named read-outs stand apart in the source and are kept apart here.

What was measured:
PAF receptor = settings: literature report; cited from earlier work
[1] = system: PAF induced platelet aggregation (human platelets); assay: PAF induced platelet aggregation assay; format: cell-based; settings: for PAF antagonist activity (in words): in vitro
Experimental: In vitro experiments have been conducted to determine the PAF and 5-lipoxygenase inhibitory activity of a variety of synthesized, neolignan derivative compounds. In particular, the novel compounds are either 2,4-diaryl-1,3-dithiolanes or futoenone derivatives. PAF antagonist activity was determined according to the method of Shen et al., in Methods of Ezymology, Vol. 187, 447-449 (1990), and that article is herein incorporated by reference. The 5-lipoxygenase inhibitory activity was determined according to an assay discussed below.
The following outlines a platelet aggregation assay procedure. Blood is obtained from human volunteers who have not ingested aspirin or steroid drugs for ten days and is stored with a 3.8% trisodium citrate anticoagulant. Heparin is not used as the anticoagulant since it interferes with platelet aggregation. Citrated blood is centrifuged at 220 g for 10 min. at room temperature to obtain platelet-rich plasma (PRP). The platelet count is determined and is adjusted to […]. Platelet-poor plasma (PPP) is prepared by centrifuging PRP at 1000 g for 20 min. to pelletize the platelets. PPP is used to calibrate the aggregometer. Washed platelet suspension (WPS) is prepared from PRP by underlayering the latter with Ficoll-Paque (9:2, v/v) and centrifuging at 750 g for 15 min. at room temperature. The platelets form a band between the plasma and the separation medium and are carefully collected and suspended in Tyrode's solution (in mM: NaCl, 137; KCl, 2.7; NAHCO3, 11.9; NaH2 -PO4, 0.42; MgCl2, 1.0; CaCl2, 1.0; HEPES, 5.0; and dextrose, 1 g/liter, with 0.25% BSA, w/v, pH 7.4). Prostacyclin (PGI2) (1 ng/ml) can be added to the suspension to prevent platelet activation; however, it should be understood that the inhibitory activity of PGI2 disappears completely 10 min. from the time of addition at room temperature. The suspension is then spun at 1000 g for 10 min. and the pellet is resuspended in Tyrode's buffer for platelet aggregation. The suspensions are maintained at 37° C. and stirred constantly at 1000 revolutions per min (rpm). A known amount of PAF, such as 0.11 μM PAF, is added to the suspension three to five minutes after the addition of the potential PAF antagonists (the synthesized compounds). […] To obtain the IC50 value, varying concentrations of a potential antagonist need to be added to the test suspensions with the percentage inhibition being determined for each concentration of the antagonist, and the IC50 value is obtained from a plot of the percentage inhibition versus concentration of the antagonist.

[2] = PAF induced platelet aggregation

Row | Compound | PAF receptor antagonism (in words) (PAF receptor) | PAF antagonist activity (in words) [1, 2] | other results
1 | COc1cc(C2CCC(c3cc(OC)c(OC)c(OC)c3)O2)cc(OC)c1OC [L-652,731] | potent PAF receptor antagonists |  | 
2 | C=CCC1=C[C@@]2(OC)C(=CC1=O)O[C@H](c1ccc(OC)c(OC)c1)[C@H]2C [kadsurenone] | potent, specific and competitive inhibitor of PAF at the receptor level |  | 
3 | COc1cc(C2CSC(c3cc(OC)c(OC)c(OC)c3)O2)cc(OC)c1OC (stereo not shown) [oxathiolane (F')] |  | much weaker antagonist of PAF-induced platelet aggregation than the corresponding dithiolane compound | 
4 | CCCOc1c(OC)cc(C2CCC(c3cc(OC)c(OC)c(OC)c3)O2)cc1S(C)(=O)=O [L-659,989] | potent PAF receptor antagonists |  | 
5 | COc1cc(C2CSC(c3cc(OC)c(OC)c(OC)c3)S2)cc(OC)c1OC (stereo not drawn) [compound 1, Cis and trans-2,4-bis-(3,4,5-trimethoxyphenyl)-1,3-dithiolane] |  |  | IC50 ([1]; Homo sapiens, PAF induced platelet aggregation, read-out: IC50 value, PAF-induced platelet aggregation): < 1 µM
6 | COC1=C[C@]23C[C@H](C[C@H](c4ccc5c(c4)OCO5)[C@H]2C)OC3=CC1=O [futoenone] |  | posesses PAF antagonist activity; also recorded: potent PAF antagonist activity | IC50 ([1]; human platelet assay in PRP, 0.1 μM PAF, read-out: IC50 value for platelet aggregation induced by 0.1 μM PAF): ~13.6 µM
